Values joined by “and” are separate entries in the source; they are usually repeats but may differ in a detail not shown here. Identical values can stand only once.
Experiments:
mice immunized with AChR = assay: EAMG: muscle acetylcholine receptor content and Ig-complexed AChR; type: in vivo, mouse; conditions: for % of AChR Complexed with Ig / Carcass AChR Content: 10 days after injection
Description: After the observation period, the animals were sacrificed, skinned, and eviscerated; and a cholinergic receptor (AChR) extract was prepared as described by Lefvert, A. K. et al., Scand. J. Immunol. supra for determination of total AChR content and Ig-complexed AChR content, as described therein.
Briefly, to determine total AChR content, known portions of the AChR extracts were incubated with a ten-fold excess of ^125I-alpha-bungarotoxin for 1 hour at 37° C. so as to label the receptor for quantitation. The mixture was subjected to gel filtration on Sephacryl G200 to separate free and bound toxin. To determine the amount of AChR complexed to IgG or IgM antibodies, the extract was incubated with a ten-fold excess of labeled bungarotoxin overnight at 4° C.; anti-mouse IgG or IgM was then added and the samples incubated overnight at 4° C., followed by separation of the precipitates, washing and counting.

lymph node cells = assay: In vivo effect of lectin on phenotypes of lymphocytes (antibody staining); set-up: species or system rat; conditions: for % positive / F^L / % CHANGE IN POSITIVES: Lymph Node Cells
Lewis rat = assay: Experimental autoimmune encephalomyelitis (EAE) induced with GPBP/CFA; type: in vivo
Source text: Experimental autoimmune encephalomyelitis (EAE) is a T-cell-mediated disease considered to be a useful model for human paralytic and demyelinating diseases such as multiple sclerosis (Vandenbark, A. et al., J. Immunol. (1985) 135:223). In the Lewis rat, paralytic signs of EAE are induced about 14 days after injecting guinea pig myelin basic protein (GPBP) in Complete Freund's Adjuvant (CFA). It has been shown by Offner, H. et al. (J. Immunol. (1988) 141:3288) that T-cells specific for GPBP in immunized rats recognize amino acid residues 72-89 of GPBP and have the ability to transfer both clinical signs of EAE and delayed-type hypersensitivity reaction to GPBP to other animals.
In the studies reported in this example, EAE was induced by injection of GPBP/CFA as described above.
In one protocol intravenous administration of lectin was started at day 0 relative to 50 μg GPBP/CFA injection, with additional lectin treatment at days 3 and 6. The severity of the disease was determined clinically and histologically:
“Clinical” Ratings are as Follows:
3=Hind quarter paralysis.
“Histologic” Ratings are as Follows:
Slides were examined for degree of inflammation with ratings as follows:
0.5=a few infiltrating cells in the meninges;
1=meningeal infiltration, more organized and concentrated around blood vessels;
2-4=increasing intensity of meningeal infiltration and perivascular cuffing in the CNS parenchyma.
In a second protocol, lectin was first administered three days before immunization with 50 μg GPBP/CFA and was followed by daily injections until day 7 after immunization.
In an additional experiment, animals were given various doses of lectin on days 0-12, following the administration of 10 μg GPBP injected intramuscularly.

Lewis rats = assay: Rat heart transplantation (Brown Norway into Lewis); type: in vivo; conditions: for Onset of Rejection: d − 3 to d + 9, heart allograft
Description: The studies reported here relate to Brown Norway rat tissue transplanted into Lewis rats. This model, a highly histo-incompatible donor/recipient pair, provides a very stringent test with predictive value in human transplantation. Known general immunosuppressive agents show immunosuppressive activity in these models. Several forums of this model are used in the studies reported here.
These studies were performed in the laboratory of Dr. Randy Morris of Stanford University. Whole rat hearts were grafted into host rats which were examined daily thereafter for signs of rejection.
A control group comprised twelve recipients treated daily i.v. only with buffer control. The graft survival times were: 6d (x4), 7d (x7), and 8d, giving a mean survival of […]+/−0.6d (SD). The final day of survival is defined as the day on which the donor heart ceased to contract as assessed by lack of obvious palpitations and as confirmed by direct visualization at laparotomy.
Five recipients were treated with the recombinant lectin. All animals were pretreated with 1 mg/kg i.v. lectin on days −3, −2 and −1. The first two animals were then treated postoperatively with 1 mg/kg/d i.v. with lectin from day 1 until graft rejection. The second three animals were treated in the postoperative period from day 1 until graft rejection with 2 mg/kg/d i.v. of lectin. Graft survivals were 9 and 10d for the first group of rats, and 9, 10 and 11d for the second group. No dramatic increase in survival was seen by doubling the dose of lectin in group two in the postoperative period. Therefore, graft survival times of both groups were combined for statistical analysis. When graft survival was analyzed, lectin treatment produced a mean graft survival of 9.8+/−0.84d (SD), +/−0.38d (SEM) with a 95% confidence limit. Using the one-tailed Mann-Whitney U-test to compare the differences between the graft survival times for the saline and lectin-treated groups, a P value of 0.00096 was obtained.

[1] = antibody IgG, lectin-treated rats
[2] = 250 μg lectin Days −3 to 6 daily
[3] = 250 μg lectin Days −3 to 6 daily, background subtracted
[4] = 250 μg lectin Days −3 to 6 daily, scale 0-4

## Lectin: Soluble 14 kD β-galactoside-binding HL-60/placenta lectin of FIG. 1 (SEQ ID NO:2), prepared recombinantly in E. coli
Mice immunized with AChR; AChR + lectin 0.1 μg
  % of AChR Complexed with Ig: 48 ± 6.0%
  Carcass AChR Content: 0.8 ± 0.4 mol × 10^−11
Mice immunized with AChR; AChR + lectin 1 μg
  % of AChR Complexed with Ig: 52 ± 2.0%
  Carcass AChR Content: 1.4 ± 0.3 mol × 10^−11
Mice immunized with AChR; AChR + lectin 5 μg
  % of AChR Complexed with Ig: 44 ± 5.0%
  Carcass AChR Content: 0.9 ± 0.5 mol × 10^−11
Mice immunized with AChR; AChR + lectin 15 μg
  % of AChR Complexed with Ig: 11 ± 10.7%
  Carcass AChR Content: 3.5 ± 0.4 mol × 10^−11
Mice immunized with AChR; AChR + lectin 25 μg
  % of AChR Complexed with Ig: 11 ± 7.8%
  Carcass AChR Content: 3.2 ± 0.6 mol × 10^−11
Mice immunized with AChR; single subcutaneous doses of about 7.5-12 μg
  AChR loss and amount of Ig-complexed AChR: lowered
Lymph node cells; antibody 0X6
  % positive: 10.0%
  F^L: 1208
Lymph node cells; antibody 0X6, lectin vs control
  % CHANGE IN POSITIVES: 0%
Lymph node cells; antibody 0X8
  % positive: 30.3%
Lymph node cells; antibody 0X8 (suppressor T-cells)
  F^L: 472
Lymph node cells; antibody 0X8, lectin vs control
  % CHANGE IN POSITIVES: +28%
Lymph node cells; antibody 0X12
  % positive: 9.9%
  F^L: 316
Lymph node cells; antibody 0X12, lectin vs control
  % CHANGE IN POSITIVES: 0%
Lymph node cells; [1]
  % positive: 16.4%
  F^L: 129
Lymph node cells; antibody W3/13
  % positive: 99.5%
Lymph node cells; antibody W3/13 (total T-cells)
  F^L: 442
Lymph node cells; antibody W3/13, lectin vs control
  % CHANGE IN POSITIVES: 0%
Lymph node cells; antibody W3/25
  % positive: 76.5%
Lymph node cells; antibody W3/25 (helper T-cells)
  F^L: 230
Lymph node cells; antibody W3/25, lectin vs control
  % CHANGE IN POSITIVES: −0%
Lymph node cells; lectin-treated animals
  increase in the number of rat lymph node suppressor T-cells (0X8 reactive): 28%
Lewis rat; 250 μg lectin Days 0, 3, 6
  Duration: 3.0 days and 3 days
  Loss of Weight: 20 g
Lewis rat; 250 μg lectin Days 0, 3, 6, scale 0-4
  Severity of Disease, Histological Rating: 3.5
Lewis rat; [2]
  Duration (days): 0^3 days
  Loss of Weight (g): None^3
Lewis rat; [3]
  GPBP DTH (delayed type hypersensitivity reaction, swelling): 9 mm/100
  PPD DTH (delayed type hypersensitivity reaction, swelling): 4 mm/100
Lewis rat; [4]
  Clinical Severity of Disease: 0^3/
  Histologic Severity of Disease: 0.50^3
Lewis rat; 250 μg lectin i.v. Days 0, 3, 6, 50 μg GPBP/CFA
  Day of Onset: 17 days
Lewis rat; 10-1500 μg intraperitoneally days 0-12, 10 μg GPBP, FIGS. 10 and 11
  daily dosage optimal for ameliorating the symptoms: 500 µg
Lewis rat; lectin from three days before immunization, daily until day 7
  development of the disease (EAE): prevented completely
Lewis rats; 1 mg/kg i.v. days −3 to −1, then 1 mg/kg/d i.v. until rejection
  Graft survival, individual animals: 9 days and 10 days
Lewis rats; 1 mg/kg i.v. days −3 to −1, then 2 mg/kg/d i.v. until rejection
  Graft survival, individual animals: 9 days and 10 days and 11 days
Lewis rats; 1 mg/kg
  Onset of Rejection: 9.8 ± .8 days
Lewis rats; 2 mg/kg
  Onset of Rejection: 9.8 ± .8 days
Lewis rats; 1-2 mg/kg/d i.v.
  toxicity as might be manifested by weight loss: no noticeable toxicity
Lewis rats; both lectin dose groups combined, five recipients
  mean graft survival (SD): 9.8 ± 0.84 days
